Columns and labels:
Type in all cases: cell-based
green algae CD 1 Red [1] = experiment: Liquid culture growth inhibition (optical density), green algae; details: CD1 Red, BG-11 liquid medium, 1 mM herbicide, control 0.55
Description: (§1) Strains of green algae, cyanobacteria and E. Coli were used as test organisms. The green algae CD 1 Red and cyanobacteria Synechocystos 6803 were obtained from the collection of Prof. George Bullerjahn. Salt water strain of cyanobacteria Synechococcus 7002 was obtained from the collection of Prof. Michael McKay. E Coli DH 5α was obtained from Invitrogen Inc.
(§2) Green algae and cyanobacteria were propagated photoautotrophically in 250 mL Erlenmeyer flasks containing 100 mL of liquid BG-11 culture medium (see Supporting Information). The cultures were kept on a rotating shaker (100 rpm) at 25° C. for 4 days and continuously illuminated with cool-white fluorescent light with a constant light intensity of 5000 lux. The grown culture medium was sterilized in an autoclave at 121° C. and 1.05 kg cm^−2 pressure for 20 min. For the cell experiments, 20 mL aliquots of the BG-11 medium containing the green algal ([cells]initial=5.9×10^7 mL^−1) or cyanobacteria cells ([cells]initial=1.7×10^9 mL^−1) were placed in sterile 50 mL Erlenmeyer flasks. […] Cell counts were correlated with the absorbance and measured as a function of time using a Spectronic 20 Genesis spectrophotometer. […] In each experiment, the inhibition of cell growth in treated cultures was monitored spectrophotometrically and compared to the growth in control samples.

[2] = system: cyanobacteria Synechocystos 6803; experiment: Liquid culture growth inhibition (optical density), fresh water cyanobacteria; details: Synechocystos 6803, BG-11 liquid medium, 1 mM herbicide, control 1.4
Description: as §1, §2

[3] = system: cyanobacteria Synechococcus 7002; experiment: Liquid culture growth inhibition (optical density), salt water cyanobacteria; details: Synechococcus 7002, BG-11 liquid medium, 1 mM herbicide, 7 days; control 0.72
Description: as §1
Green algae and cyanobacteria were propagated photoautotrophically in 250 mL Erlenmeyer flasks containing 100 mL of liquid BG-11 culture medium (see Supporting Information). The cultures were kept on a rotating shaker (100 rpm) at 25° C. for 4 days and continuously illuminated with cool-white fluorescent light with a constant light intensity of 5000 lux. The grown culture medium was sterilized in an autoclave at 121° C. and 1.05 kg cm^−2 pressure for 20 min. For the cell experiments, 20 mL aliquots of the BG-11 medium containing the green algal ([cells]initial=5.9×10^7 mL^−1) or cyanobacteria cells ([cells]initial=1.7×10^9 mL^−1) were placed in sterile 50 mL Erlenmeyer flasks. CD 1 Red, Synechocystos 6803 and Synechococcus 7002 were then treated with an aliquot of a stock herbicide solution to bring the final herbicide concentration to 1 mM and incubated for 7 days on a rotator shaker (100 rpm) at 25° C. and continuous light intensity of 5000 lux. Cell counts were correlated with the absorbance and measured as a function of time using a Spectronic 20 Genesis spectrophotometer. As previously reported by Ma et al., 5 the optimal wavelength for monitoring culture growth is 680 nm. Experiments for each herbicide were repeated three times. Control and treated cultures were grown under the same conditions of temperature, photoperiod, and agitation. In each experiment, the inhibition of cell growth in treated cultures was monitored spectrophotometrically and compared to the growth in control samples.

green algae CD 1 Red [4] = experiment: organism not typed
Description: After phototrophical propagation during the 5 days under cool fluorescence light (intensity 5000 lux), the average radii of inhibition zones were measured. Water soaked filter paper circles were used as controls. Experiments for each herbicide concentration were repeated 3 times.

Navicula pelliculosa = experiment: Inhibition zones around polymer pellets, diatom Navicula; details: pellet without herbicide 10 ± 1
Description: (§3) Rectangular copolymer pellets (15×10×1.5 mm) were formed from a model acrylic resin (designated as 459S2) containing several epoxy acrylic oligomers (57%), acrylic monomeric diluents (43%) and a corresponding amount of herbicide. A designated quantity of herbicide was dispersed or partially dissolved in 459S2 resin using ultrasonication and heat (60° C., overnight). To each sample, 1.5% wt. of commercial photoinitiator (ITX), 5% of ODAB synergist and 0.1% co-photoinitiator (Irgacure 819) were added. Liquid formulations were poured into an open top Teflon mold and irradiated under N2 by a 395 nm LED light source for 5 min followed by pellet removal.
(§4) Two different diatom cultures, Phaeodactylum tricornutum and Navicula pelliculosa were used in the biological activity tests. […] Following propagation over 5 days under continuous cool fluorescent light (5000 lx), the average radii of inhibition zones were measured. Experiments for each herbicide concentration were repeated at least two times.

[5] = system: Phaeodactylum tricornutum; experiment: Inhibition zones around polymer pellets, diatom Phaeodactylum; details: Phaeodactilum, pellet without herbicide 0
Description: as §3, §4

[6] = CD1 Red, herbicide concentration 0.3 mM, 5 days
[7] = CD1 Red, herbicide concentration 3 mM, 5 days
[8] = herbicide 0.15 M in 459S2 polymer pellet
[9] = herbicide 0.3 M in 459S2 polymer pellet
[10] = herbicide 0.1 M in 459S2 polymer pellet

| Compound | Optical Density at 680 nm after 7 days of media growth (green algae CD 1 Red [1]) | Optical Density at 680 nm after 7 days of media growth [2] | Optical Density at 680 nm after 7 days of media growth [3] | zone of inhibition at 300000 µM (green algae CD 1 Red [4]; 120 h, read-out: Average radii of the inhibition zones) | Average radii of the inhibition zones (green algae CD 1 Red [4]; [6]) | Average radii of the inhibition zones (green algae CD 1 Red [4]; [7]) | Average radii of the inhibition zones (green algae CD 1 Red [4]; CD1 Red, herbicide concentration 30 mM, 5 days) | Diameter of Inhibition Zone (Bleaching indicates no growth detected on 100 mm plate) (Navicula pelliculosa; [8]) | Diameter of Inhibition Zone (Bleaching indicates no growth detected on 100 mm plate) (Navicula pelliculosa; [9]) | Diameter of Inhibition Zone (Bleaching indicates no growth detected on 100 mm plate) [5, 10] | Diameter of Inhibition Zone (Bleaching indicates no growth detected on 100 mm plate) [5, 9] | zone of inhibition at 30000 µM (green algae CD 1 Red [4]; 120 h, CD1 Red, herbicide concentration 30 mM, 5 days, read-out: Average radii of the inhibition zones) | Average radii of the inhibition zones (green algae CD 1 Red [4]; CD1 Red, herbicide concentration 300 mM, 5 days) |
| --- | --- | --- | --- | --- | --- | --- | --- | --- | --- | --- | --- | --- | --- |
| C=CC(=O)N(CC(=O)O)CP(=O)(O)O [AA, N-Acryloyl-N-(phosphonomethyl)glycine] | 0.02 | 0.54 | 0.07 | 10 mm | No | No | No | 20 ± 2 mm | Bleaching | 23 ± 2 mm | Bleaching | – | – |
| O=C(O)CNCP(=O)(O)O [Glyphosate, N-(Phosphonomethyl)glycine, reference compound] | 0.02 | 0.58 | 0.04 | – | No | No | – | 22.5 ± 2 mm | Bleaching | 17.5 ± 2 mm | Bleaching | 7.5 mm | Complete |

Reference: patent US20080317700A1 (priority 2006, published 2008)
